Reference: publication PMC5983681, “PIEZO1 Channel Is a Potential Regulator of Synovial Sarcoma Cell-Viability” (International Journal of Molecular Sciences, 2018)

Biological target: T1, PIEZO1 (SW982 cells) (Homo sapiens, UniProt Q92508)
T1 construct: endogenous full-length channel in native SW982 cells; response lost on PIEZO1 siRNA knockdown
Experiment: Fura-2 Ca2+ imaging
Assay type: cell-based
Conditions: agonist; SBS with […] Ca2+, pH […]-26 °C; native SW982 cells, […] tested; bound only; read-out: apparent EC50

T1 sequence (Q92508 whole entry): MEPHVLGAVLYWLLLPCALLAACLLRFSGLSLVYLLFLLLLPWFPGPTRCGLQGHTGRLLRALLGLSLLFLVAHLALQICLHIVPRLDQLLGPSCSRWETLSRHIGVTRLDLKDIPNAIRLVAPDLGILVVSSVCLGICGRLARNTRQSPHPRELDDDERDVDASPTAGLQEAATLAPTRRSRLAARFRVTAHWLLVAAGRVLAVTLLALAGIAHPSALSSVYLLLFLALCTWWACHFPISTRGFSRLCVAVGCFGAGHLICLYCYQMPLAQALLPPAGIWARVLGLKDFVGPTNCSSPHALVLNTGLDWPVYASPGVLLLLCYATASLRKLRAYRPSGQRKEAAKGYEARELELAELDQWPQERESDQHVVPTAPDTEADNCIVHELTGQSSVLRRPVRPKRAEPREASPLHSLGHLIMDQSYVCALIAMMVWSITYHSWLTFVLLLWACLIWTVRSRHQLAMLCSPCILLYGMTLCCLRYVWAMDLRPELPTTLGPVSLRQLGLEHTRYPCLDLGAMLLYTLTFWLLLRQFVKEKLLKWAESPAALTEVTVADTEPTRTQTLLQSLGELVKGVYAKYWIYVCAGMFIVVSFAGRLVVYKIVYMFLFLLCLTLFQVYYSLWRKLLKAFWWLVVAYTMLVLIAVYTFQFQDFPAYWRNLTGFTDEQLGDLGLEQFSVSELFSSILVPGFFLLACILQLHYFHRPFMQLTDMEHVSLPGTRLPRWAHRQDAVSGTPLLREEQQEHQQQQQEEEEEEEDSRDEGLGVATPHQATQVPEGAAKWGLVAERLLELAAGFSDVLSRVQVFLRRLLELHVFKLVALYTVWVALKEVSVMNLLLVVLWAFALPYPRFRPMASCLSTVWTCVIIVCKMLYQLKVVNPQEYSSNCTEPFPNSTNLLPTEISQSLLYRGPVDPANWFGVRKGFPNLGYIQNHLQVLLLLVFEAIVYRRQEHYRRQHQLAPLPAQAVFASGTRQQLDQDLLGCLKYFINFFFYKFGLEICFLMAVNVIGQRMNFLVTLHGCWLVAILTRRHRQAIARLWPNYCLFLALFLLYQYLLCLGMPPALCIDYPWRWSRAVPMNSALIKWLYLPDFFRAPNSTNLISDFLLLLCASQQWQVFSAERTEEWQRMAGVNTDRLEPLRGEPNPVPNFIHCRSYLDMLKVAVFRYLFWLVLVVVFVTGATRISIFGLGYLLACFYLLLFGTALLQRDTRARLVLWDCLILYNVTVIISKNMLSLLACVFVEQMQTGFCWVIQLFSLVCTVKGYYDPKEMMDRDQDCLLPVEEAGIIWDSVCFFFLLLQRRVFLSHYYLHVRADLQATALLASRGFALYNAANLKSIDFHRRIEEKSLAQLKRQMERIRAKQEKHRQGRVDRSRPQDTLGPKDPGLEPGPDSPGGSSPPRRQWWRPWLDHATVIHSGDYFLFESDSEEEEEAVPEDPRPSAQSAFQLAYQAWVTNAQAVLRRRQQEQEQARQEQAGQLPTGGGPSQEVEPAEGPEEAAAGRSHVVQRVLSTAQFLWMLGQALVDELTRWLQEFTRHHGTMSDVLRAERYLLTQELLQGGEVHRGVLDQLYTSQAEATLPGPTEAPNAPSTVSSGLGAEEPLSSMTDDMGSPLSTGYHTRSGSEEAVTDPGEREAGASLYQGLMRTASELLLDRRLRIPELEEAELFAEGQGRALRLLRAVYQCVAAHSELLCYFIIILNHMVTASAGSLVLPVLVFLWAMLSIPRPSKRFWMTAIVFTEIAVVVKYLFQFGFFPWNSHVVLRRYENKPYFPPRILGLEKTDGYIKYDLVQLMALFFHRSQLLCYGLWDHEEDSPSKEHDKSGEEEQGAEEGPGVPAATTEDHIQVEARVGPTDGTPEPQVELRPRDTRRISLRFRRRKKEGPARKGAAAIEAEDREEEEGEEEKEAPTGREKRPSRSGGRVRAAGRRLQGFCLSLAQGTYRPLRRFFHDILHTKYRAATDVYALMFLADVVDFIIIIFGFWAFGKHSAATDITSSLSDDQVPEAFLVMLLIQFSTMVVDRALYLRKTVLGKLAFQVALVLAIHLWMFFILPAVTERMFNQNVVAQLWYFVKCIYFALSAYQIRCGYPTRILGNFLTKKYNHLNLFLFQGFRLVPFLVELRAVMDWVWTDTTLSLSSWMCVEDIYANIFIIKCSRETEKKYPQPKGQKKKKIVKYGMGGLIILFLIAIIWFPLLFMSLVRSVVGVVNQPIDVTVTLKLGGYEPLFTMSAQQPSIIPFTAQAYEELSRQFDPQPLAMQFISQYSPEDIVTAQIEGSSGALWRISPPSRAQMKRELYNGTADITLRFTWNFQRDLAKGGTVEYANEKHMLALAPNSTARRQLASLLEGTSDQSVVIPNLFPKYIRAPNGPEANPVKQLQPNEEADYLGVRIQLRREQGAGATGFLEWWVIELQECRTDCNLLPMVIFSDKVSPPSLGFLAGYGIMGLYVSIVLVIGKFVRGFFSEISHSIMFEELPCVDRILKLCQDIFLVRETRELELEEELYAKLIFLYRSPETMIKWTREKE

How did the EC50 turn out when `Clc1cccc(Cl)c1CSc1nnc(-c2cnccn2)s1` [Yoda1, 2-[5-[[(2,6-Dichlorophenyl)methyl]thio]-1,3,4-thiadiazol-2-yl]-pyrazine] was run?
The EC50 was under 1000 nM.
